# Test system: bacterial isolates
# Assay: microbe, parasite or virus in culture
# Type: cell-based
sequence,measurement,setting,value
KWKSFIKKLTSAAKKVVTTAKPLISS [MBI 26],Peptide MIC Alone,"P. aeruginosa PA4, Mupirocin section",>128 µg/mL
same,Ceftriaxone MIC + Peptide,P. aeruginosa PA008,8 µg/mL
same,Peptide MIC + Ceftriaxone,P. aeruginosa PA008,0.125 µg/mL
same,Ceftriaxone MIC + Peptide,P. aeruginosa PA024,4 µg/mL
same,Peptide MIC + Ceftriaxone,P. aeruginosa PA024,32 µg/mL
same,Gentamicin MIC + Peptide,P. aeruginosa PA041,1 µg/mL
same,Peptide MIC + Gentamicin,P. aeruginosa PA041,32 µg/mL
same,Ciprofloxacin MIC + Peptide,P. aeruginosa PA41,1 µg/mL
same,Peptide MIC + Ciprofloxacin,P. aeruginosa PA41,32 µg/mL
same,Ciprofloxacin MIC + Peptide,P. aeruginosa PA77,0.125 µg/mL
same,Peptide MIC + Ciprofloxacin,P. aeruginosa PA77,64 µg/mL
same,Peptide MIC + Piperacillin,S. aureus 19 MRSA,1 µg/mL
same,Piperacillin MIC + Peptide,S. aureus 19 MRSA,16 µg/mL
same,Peptide MIC Alone,"S. aureus 19 MRSA, Piperacillin section",32 µg/mL
same,Ciprofloxacin MIC + Peptide,S. aureus SA11,32 µg/mL
same,Peptide MIC + Ciprofloxacin,S. aureus SA11,0.125 µg/mL
same,Ceftriaxone MIC + Peptide,S. aureus SA025 MRSA,0.125 µg/mL
same,Peptide MIC + Ceftriaxone,S. aureus SA025 MRSA,0.5 µg/mL
same,FIC,"S. aureus SA044, combination with Ciprofloxacin",0.63
same,FIC,"S. aureus SA7609, combination with Clindamycin",0.25
same,FIC,"S. aureus SA7609, combination with Methicillin",0.56
same,FIC,"S. aureus SA7610, combination with Clindamycin",0.63
same,FIC,"S. aureus SA7610, combination with Methicillin",0.31
same,FIC,"S. aureus SA7795, combination with Ampicillin",0.52
same,FIC,"S. aureus SA7795, combination with Clindamycin",0.53
same,FIC,"S. aureus SA7796, combination with Ampicillin",1.00
same,FIC,"S. aureus SA7796, combination with Clindamycin",0.51
same,FIC,"S. aureus SA7817, combination with Ampicillin",0.50
same,FIC,"S. aureus SA7818, combination with Ampicillin",1.00
same,FIC,"S. aureus SA7818, combination with Erythromycin",0.15
same,FIC,"S. aureus SA7821, combination with Erythromycin",0.50
same,FIC,"S. aureus SA7822, combination with Ampicillin",0.25
same,FIC,"S. aureus SA7823, combination with Ampicillin",0.25
same,FIC,"S. aureus SA7824, combination with Ampicillin",1.00
same,FIC,"S. aureus SA7825, combination with Ampicillin",1.00
same,FIC,"S. aureus SA7825, combination with Erythromycin",1.00
same,FIC,"S. aureus SA7834, combination with Ampicillin",0.53
same,FIC,"S. aureus SA7834, combination with Clindamycin",0.56
same,FIC,"S. aureus SA7835, combination with Ampicillin",0.53
same,FIC,"S. aureus SA7836, combination with Ampicillin",0.75
same,FIC,"S. aureus SA7837, combination with Ampicillin",1.00
same,FIC,"S. aureus SAATCC25293, combination with Methicillin",0.50
same,FIC,"S. aureus SAATCC29213, combination with Methicillin",0.31
same,FIC,"S. aureus SAW1133, combination with Methicillin",0.75
same,Peptide MIC + Piperacillin,S. aureus SB3MRSA,16 µg/mL
same,Piperacillin MIC + Peptide,S. aureus SB3MRSA,64 µg/mL
same,Peptide MIC Alone,"S. aureus SB3MRSA, Piperacillin section",>128 µg/mL
same,Mupirocin MIC + Peptide,S. aureus SBSA4,30 µg/mL
same,Peptide MIC + Mupirocin,S. aureus SBSA4,8 µg/mL
same,Peptide MIC Alone,"S. aureus SBSA4, Mupirocin section",32 µg/mL
same,Ceftriaxone MIC + Peptide,S. epidermidis SE007,2 µg/mL
same,Peptide MIC + Ceftriaxone,S. epidermidis SE007,0.5 µg/mL
same,Ceftriaxone MIC + Peptide,S. epidermidis SE012,16 µg/mL
same,Peptide MIC + Ceftriaxone,S. epidermidis SE012,1 µg/mL
same,Peptide MIC + Tobramycin,S. epidermidis SE067,0.25 µg/mL
same,Peptide MIC Alone,S. epidermidis SE067,2 µg/mL
same,Tobramycin MIC + Peptide,S. epidermidis SE067,64 µg/mL
same,Peptide MIC + Tobramycin,S. epidermidis SE068,0.5 µg/mL
same,Peptide MIC Alone,S. epidermidis SE068,2 µg/mL
same,Tobramycin MIC + Peptide,S. epidermidis SE068,4 µg/mL
same,FIC,"S. epidermidis SE8406, combination with Clindamycin",0.50
same,FIC,"S. epidermidis SE8416, combination with Clindamycin",0.56
same,FIC,"S. epidermidis SE8505, combination with Ampicillin",1.00
same,FIC,"S. epidermidis SE8565, combination with Ampicillin",1.00
same,FIC,"S. haemolyticus SH8459, combination with Ampicillin",0.52
same,FIC,"S. haemolyticus SH8472, combination with Ampicillin",0.56
same,FIC,"S. haemolyticus SH8563, combination with Ampicillin",0.75
same,FIC,"S. haemolyticus SH8564, combination with Ampicillin",0.62
same,FIC,"S. haemolyticus SH8575, combination with Ampicillin",0.75
same,FIC,"S. haemolyticus SH8576, combination with Ampicillin",0.62
same,FIC,"S. haemolyticus SH8578, combination with Ampicillin",1.00
same,Peptide MIC + Piperacillin,S. maltophilia 3,4 µg/mL
same,Piperacillin MIC + Peptide,S. maltophilia 3,32 µg/mL
same,Peptide MIC Alone,"S. maltophilia 3, Piperacillin section",16 µg/mL
same,Ciprofloxacin MIC + Peptide,S. maltophilia 34,0.25 µg/mL
same,Peptide MIC + Ciprofloxacin,S. maltophilia 34,8 µg/mL
same,Peptide MIC + Piperacillin,S. maltophilia 34,16 µg/mL
same,Piperacillin MIC + Peptide,S. maltophilia 34,4 µg/mL
same,Peptide MIC Alone,"S. maltophilia 34, Piperacillin section",>32 µg/mL
same,Ciprofloxacin MIC + Peptide,S. maltophilia 35,0.5 µg/mL
same,Peptide MIC + Ciprofloxacin,S. maltophilia 35,16 µg/mL
same,Peptide MIC + Piperacillin,S. maltophilia 35,16 µg/mL
same,Piperacillin MIC + Peptide,S. maltophilia 35,4 µg/mL
same,Peptide MIC Alone,"S. maltophilia 35, Piperacillin section",>32 µg/mL
same,Gentamicin MIC + Peptide,S. maltophilia SMA016,32 µg/mL
same,Peptide MIC + Gentamicin,S. maltophilia SMA016,32 µg/mL
same,Gentamicin MIC + Peptide,S. maltophilia SMA017,16 µg/mL
same,Peptide MIC + Gentamicin,S. maltophilia SMA017,2 µg/mL
same,Ceftriaxone MIC + Peptide,S. maltophilia SMA019,64 µg/mL
same,Peptide MIC + Ceftriaxone,S. maltophilia SMA019,1 µg/mL
same,Ceftriaxone MIC + Peptide,S. maltophilia SMA020,32 µg/mL
same,Peptide MIC + Ceftriaxone,S. maltophilia SMA020,1 µg/mL
same,Amikacin MIC + Peptide,S. maltophilia SMA021,8 µg/mL
same,Peptide MIC + Amikacin,S. maltophilia SMA021,2 µg/mL
same,Peptide MIC + Tobramycin,S. maltophilia SMA029,4 µg/mL
same,Peptide MIC Alone,S. maltophilia SMA029,>128 µg/mL
same,Tobramycin MIC + Peptide,S. maltophilia SMA029,4 µg/mL
same,Peptide MIC + Tobramycin,S. maltophilia SMA030,4 µg/mL
same,Peptide MIC Alone,S. maltophilia SMA030,>128 µg/mL
same,Tobramycin MIC + Peptide,S. maltophilia SMA030,4 µg/mL
same,Amikacin MIC + Peptide,S. maltophilia SMA037,16 µg/mL
same,Peptide MIC + Amikacin,S. maltophilia SMA037,16 µg/mL
same,Peptide MIC + Piperacillin,S. marcescens 1,0.5 µg/mL
same,Piperacillin MIC + Peptide,S. marcescens 1,32 µg/mL
same,Peptide MIC Alone,"S. marcescens 1, Piperacillin section",>128 µg/mL
same,FIC,"peptide + Amikacin, A. baumannii ABI001",0.50
same,FIC,"peptide + Amikacin, A. baumannii ABI003",0.38
same,FIC,"peptide + Amikacin, S. maltophilia SMA021",0.13
same,FIC,"peptide + Amikacin, S. maltophilia SMA037",0.19
same,FIC,"peptide + Ceftriaxone, A. baumannii ABI002",0.50
same,FIC,"peptide + Ceftriaxone, A. baumannii ABI005",0.56
same,FIC,"peptide + Ceftriaxone, B. cepacia BC003",0.50
same,FIC,"peptide + Ceftriaxone, E. cloacae ECL014",0.50
same,FIC,"peptide + Ceftriaxone, E. cloacae ECL015",0.19
same,FIC,"peptide + Ceftriaxone, K. pneumoniae KP003",0.56
same,FIC,"peptide + Ceftriaxone, P. aeruginosa PA008",0.13
same,FIC,"peptide + Ceftriaxone, P. aeruginosa PA024",0.50
same,FIC,"peptide + Ceftriaxone, S. aureus SA025 MRSA",0.52
same,FIC,"peptide + Ceftriaxone, S. epidermidis SE007",0.27
same,FIC,"peptide + Ceftriaxone, S. epidermidis SE012",0.27
same,FIC,"peptide + Ceftriaxone, S. maltophilia SMA019",0.50
same,FIC,"peptide + Ceftriaxone, S. maltophilia SMA020",0.38
same,FIC,"peptide + Ciprofloxacin, A. calcoaceticus 1",0.51
same,FIC,"peptide + Ciprofloxacin, A. calcoaceticus 6",0.50
same,FIC,"peptide + Ciprofloxacin, E. cloacae 13",0.27
same,FIC,"peptide + Ciprofloxacin, E. cloacae 15",0.38
same,FIC,"peptide + Ciprofloxacin, E. cloacae 16",0.38
same,FIC,"peptide + Ciprofloxacin, P. aeruginosa 23",0.53
same,FIC,"peptide + Ciprofloxacin, P. aeruginosa 24",0.53
same,FIC,"peptide + Ciprofloxacin, P. aeruginosa PA41",0.50
same,FIC,"peptide + Ciprofloxacin, P. aeruginosa PA77",0.56
same,FIC,"peptide + Ciprofloxacin, S. aureus SA11",0.50
same,FIC,"peptide + Ciprofloxacin, S. maltophilia 34",0.25
same,FIC,"peptide + Ciprofloxacin, S. maltophilia 35",0.50
same,FIC,"peptide + Gentamicin, A. baumannii ABI001",0.50
same,FIC,"peptide + Gentamicin, A. baumannii ABI002",0.53
same,FIC,"peptide + Gentamicin, P. aeruginosa PA041",0.63
same,FIC,"peptide + Gentamicin, S. maltophilia SMA016",0.25
same,FIC,"peptide + Gentamicin, S. maltophilia SMA017",0.38
same,FIC,"peptide + Mupirocin, E. coli ECO5",0.43
same,FIC,"peptide + Mupirocin, E. coli SBECO2",0.16
same,FIC,"peptide + Mupirocin, P. aeruginosa PA2",0.51
same,FIC,"peptide + Mupirocin, P. aeruginosa PA4",0.23
same,FIC,"peptide + Mupirocin, S. aureus SBSA4",0.28
same,FIC,"peptide + Piperacillin, A. calcoaceticus 7",0.25
same,FIC,"peptide + Piperacillin, A. calcoaceticus 8",0.19
same,FIC,"peptide + Piperacillin, E. cloacae 13",0.16
same,FIC,"peptide + Piperacillin, H. influenzae 1",0.53
same,FIC,"peptide + Piperacillin, H. influenzae 2",0.51
same,FIC,"peptide + Piperacillin, P. aeruginosa 7",0.25
same,FIC,"peptide + Piperacillin, P. aeruginosa 23",0.27
same,FIC,"peptide + Piperacillin, P. aeruginosa 28",0.14
same,FIC,"peptide + Piperacillin, P. aeruginosa 41",0.53
same,FIC,"peptide + Piperacillin, S. aureus 19 MRSA",0.16
same,FIC,"peptide + Piperacillin, S. aureus SB3MRSA",0.31
same,FIC,"peptide + Piperacillin, S. maltophilia 3",0.50
same,FIC,"peptide + Piperacillin, S. maltophilia 34",0.25
same,FIC,"peptide + Piperacillin, S. maltophilia 35",0.26
same,FIC,"peptide + Piperacillin, S. marcescens 1",0.50
same,FIC,"peptide + Tobramycin, S. epidermidis SE067",0.38
same,FIC,"peptide + Tobramycin, S. epidermidis SE068",0.27
same,FIC,"peptide + Tobramycin, S. maltophilia SMA029",0.05
same,FIC,"peptide + Tobramycin, S. maltophilia SMA030",0.05
same,FIC,"peptide + Vancomycin, E. faecalis EFS005",0.31
same,FIC,"peptide + Vancomycin, E. faecalis EFS012",0.07
same,FIC,"peptide + Vancomycin, E. faecalis EFS013",0.07
same,FIC,"peptide + Vancomycin, E. faecium EFM010",0.31
same,FIC,"peptide + Vancomycin, E. faecium EFM011",0.31
